PubChem BioAssay AID330 (DTP/NCI, 2004)
“And” between values parts separate entries of the source, which are not always exact repeats. Identical values can stand only once. Toxic doses and inconclusive results are not listed. The calls were made as follows: active = survival T/C of 150% or more; inactive = T/C below 125% in these data.

System: P388 leukemia ip, CD2F1 mice, survival T/C
Assay: NCI In Vivo Anticancer Drug Screen. Data for tumor model P388 Leukemia (intraperitoneal) in CD2F1 (CDF1) mice
Details: endpoint: median survival time, higher = longer survival
How it was run: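 Mice carrying the transplanted tumor received test compound or vehicle. Survival was recorded in each group, and the value is the treated-group measurement divided by that of the vehicle-treated control group.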

[1] = dose: 60.0 mg/kg/injection, schedule: Q01DX005 (ip), vehicle: saline with Tween-80
[2] = dose: 120.0 mg/kg/injection, schedule: Q01DX005 (ip), vehicle: saline with Tween-80
[3] = dose: 240.0 mg/kg/injection, schedule: Q01DX005 (ip), vehicle: saline with Tween-80
[4] = dose: 50.0 mg/kg/injection, schedule: Q01DX009 (ip), vehicle: saline with Tween-80
[5] = dose: 100.0 mg/kg/injection, schedule: Q01DX009 (ip), vehicle: saline with Tween-80
[6] = dose: 200.0 mg/kg/injection, schedule: Q01DX009 (ip), vehicle: saline with Tween-80
[7] = dose: 50.0 mg/kg/injection, schedule: Q01DX005 (ip), vehicle: saline with Tween-80
[8] = dose: 100.0 mg/kg/injection, schedule: Q01DX005 (ip), vehicle: saline with Tween-80
[9] = dose: 50.0 mg/kg/injection, schedule: Q01DX005 (ip), vehicle: Klucel (hydroxypropylcellulose) (HPC)
[10] = dose: 100.0 mg/kg/injection, schedule: Q01DX005 (ip), vehicle: Klucel (hydroxypropylcellulose) (HPC)
[11] = dose: 200.0 mg/kg/injection, schedule: Q01DX005 (ip), vehicle: Klucel (hydroxypropylcellulose) (HPC)
[12] = dose: 25.0 mg/kg/injection, schedule: Q01DX009 (ip), vehicle: Klucel (hydroxypropylcellulose) (HPC)
[13] = dose: 50.0 mg/kg/injection, schedule: Q01DX009 (ip), vehicle: Klucel (hydroxypropylcellulose) (HPC)
[14] = dose: 100.0 mg/kg/injection, schedule: Q01DX009 (ip), vehicle: Klucel (hydroxypropylcellulose) (HPC)
[15] = dose: 200.0 mg/kg/injection, schedule: Q01DX009 (ip), vehicle: Klucel (hydroxypropylcellulose) (HPC)
[16] = dose: 50.0 mg/kg/injection, schedule: Q01DX009 (ip), vehicle: saline

Measured: T/C

O=C1CSC(=S)N1c1ccc2c(c1)OCO2
inactive: [1] 92 % of control | [2] 90 % of control | [3] 90 % of control

COc1ccc(Br)cc1
inactive: [4] 104 % of control | dose: 50.0 mg/kg/injection, schedule: Q04DX003 (ip), vehicle: saline 100 % of control | [5] 118 % of control | dose: 100.0 mg/kg/injection, schedule: Q04DX003 (ip), vehicle: saline 105 % of control | [6] 109 % of control | dose: 200.0 mg/kg/injection, schedule: Q04DX003 (ip), vehicle: saline 110 % of control

C=CCNC(=O)SCC
inactive: [7] 107 % of control | [8] 116 % of control

c1ccc(CON(CCc2ccncc2)CCc2ccncc2)cc1
inactive: dose: 50.0 mg/kg/injection, schedule: Q01DX005 (ip), vehicle: saline 97 % of control | dose: 100.0 mg/kg/injection, schedule: Q01DX005 (ip), vehicle: saline 103 % of control | dose: 200.0 mg/kg/injection, schedule: Q01DX005 (ip), vehicle: saline 101 % of control

COC1/C=C/OC2(C)Oc3c(C)c(O)c4c(O)c(c(/C=N/Nc5nc6c(N)ncnc6n5C5OC(CO)C(O)C5O)c(O)c4c3C2=O)NC(=O)C(C)=C/C=C/C(C)C(O)C(C)C(O)C(C)C(OC(C)=O)C1C (stereo not given)
inactive: [4] 104 % of control | [5] 99 % of control | [6] 113 % of control

CCCCOC(=O)/C=C/C(=O)N1CC(C)N(C(=O)/C=C/C(=O)OCCCC)CC1C (stereo not given)
inactive: [9] 105 % of control | [10] 100 % of control | [11] 100 % of control

C[n+]1cc2ccccc2cc1CC(=S)[S-]
inactive: [12] 98 % of control | [13] 98 % of control | [14] 99 % of control | [15] 91 % of control

CC1NC(CCCCCCCCCCC2=CC(CCCCCCCCCCC3CCC(O)C(C)N3)C3CCCN3C2)CCC1O (stereo not given)
inactive: dose: 0.93 mg/kg/injection, schedule: Q01DX005 (ip), vehicle: water 95 % of control | dose: 1.87 mg/kg/injection, schedule: Q01DX005 (ip), vehicle: water 96 % of control | dose: 3.75 mg/kg/injection, schedule: Q01DX005 (ip), vehicle: water 91 % of control and 92 % of control and 94 % of control | dose: 7.5 mg/kg/injection, schedule: Q01DX005 (ip), vehicle: water 93 % of control

COc1cccc2c1C(=O)c1c(O)c(CCl)cc(OC)c1C2=O
inactive: dose: 7.5 mg/kg/injection, schedule: Q01DX005 (ip), vehicle: saline with Tween-80 108 % of control | dose: 15.0 mg/kg/injection, schedule: Q01DX005 (ip), vehicle: saline with Tween-80 117 % of control | dose: 30.0 mg/kg/injection, schedule: Q01DX005 (ip), vehicle: saline with Tween-80 114 % of control | [1] 101 % of control

CSc1nc(NC(C)C)nc(NC(C)C)n1
inactive: dose: 50.0 mg/kg/injection, schedule: Q04DX003 (ip), vehicle: saline with Tween-80 100 % of control | dose: 100.0 mg/kg/injection, schedule: Q04DX003 (ip), vehicle: saline with Tween-80 91 % of control

COc1cc2c(OC)c(c1)CCCC1=CC(=O)C=C(CCC2)C1=O
inactive: [7] 94 % of control | dose: 100.0 mg/kg/injection, schedule: Q01DX001 (ip), vehicle: Klucel (hydroxypropylcellulose) (HPC) 92 % of control | [8] 103 % of control | dose: 200.0 mg/kg/injection, schedule: Q01DX001 (ip), vehicle: Klucel (hydroxypropylcellulose) (HPC) 100 % of control | dose: 200.0 mg/kg/injection, schedule: Q01DX005 (ip), vehicle: saline with Tween-80 100 % of control | dose: 400.0 mg/kg/injection, schedule: Q01DX001 (ip), vehicle: Klucel (hydroxypropylcellulose) (HPC) 90 % of control

CC/C(=N/NS(=O)(=O)c1ccc(C)cc1)c1ccc(C)c(C)c1
inactive: [16] 98 % of control | dose: 100.0 mg/kg/injection, schedule: Q01DX009 (ip), vehicle: saline 90 % of control | dose: 200.0 mg/kg/injection, schedule: Q01DX009 (ip), vehicle: saline 104 % of control

Cc1cc[n+](C2=C(Nc3ccc(Cl)cc3Cl)C(=O)c3ccccc3C2=O)cc1
inactive: [1] 99 % of control | [2] 106 % of control | [3] 108 % of control

CN(C)CC(CN1CCCC1)C(=O)c1ccccc1 (stereo not given)
inactive: dose: 3.12 mg/kg/injection, schedule: Q01DX009 (ip), vehicle: saline 96 % of control | dose: 3.13 mg/kg/injection, schedule: Q01DX009 (ip), vehicle: saline 96 % of control | dose: 6.25 mg/kg/injection, schedule: Q01DX009 (ip), vehicle: saline 99 % of control and 116 % of control (2×) | dose: 12.5 mg/kg/injection, schedule: Q01DX009 (ip), vehicle: saline 114 % of control | dose: 25.0 mg/kg/injection, schedule: Q01DX009 (ip), vehicle: saline 112 % of control and 121 % of control and 122 % of control | [16] 102 % of control

OC1c2ccccc2-c2nc3ccccc3cc21 (stereo not given)
inactive: [9] 110 % of control and 92 % of control | [10] 102 % of control and 86 % of control | [11] 107 % of control

OCc1ccccc1Cn1ccnc1
inactive: [1] 96 % of control | [2] 93 % of control | [3] 96 % of control

Cc1ccc(S(=O)(=O)NC(CNC(N)=O)C(=O)O)cc1 (stereo not given)
inactive: dose: 12.5 mg/kg/injection, schedule: Q01DX009 (ip), vehicle: other 107 % of control | dose: 25.0 mg/kg/injection, schedule: Q01DX009 (ip), vehicle: other 101 % of control | dose: 50.0 mg/kg/injection, schedule: Q01DX009 (ip), vehicle: other 100 % of control | dose: 100.0 mg/kg/injection, schedule: Q01DX009 (ip), vehicle: other 97 % of control | dose: 200.0 mg/kg/injection, schedule: Q01DX009 (ip), vehicle: other 96 % of control

O=S1(=O)CC(Cl)(Br)C1 (tested in a mixture with another compound)
inactive: dose: 12.5 mg/kg/injection, schedule: Q01DX009 (ip), vehicle: Klucel (hydroxypropylcellulose) (HPC) 96 % of control | [12] 93 % of control | [13] 100 % of control | [14] 96 % of control

CC(C)N(C(C)C)C(C(=O)OCC(O)C(O)C(O)C(O)C(=O)O)N(C(C)C)C(C)C (stereo not given)
inactive: [13] 113 % of control | [14] 97 % of control | [15] 111 % of control
